Data reported in patent US6515140B2, “Fused pyrrolecarboxamides; a new class of GABA brain receptor ligands” (Neurogen Corporation, priority 1996, dated 2003).
pKi: −log10 of the molar value.

Assays:
[1] = biological target: GABAa receptor; test: GABAa receptor binding assay (3H-RO15-1788 displacement); details: rat cortical tissue homogenate; radioligand 0.5 nM 3H-RO15-1788 [3H-Flumazenil]; 30 min at 4° C.
Method: The pharmaceutical utility of compounds of this invention are indicated by the following assay for GABAa receptor binding activity.
Assays are carried out as described in Thomas and Tallman (J. Bio. Chem. 156:9838-9842 , J. Neurosci. 3:433-440, 1983). Rat cortical tissue is dissected and homogenized in 25 volumes (w/v) of 0.05 M Tris HCl buffer (pH 7.4 at 4° C.). The tissue homogenate is centrifuged in the cold (4°) at 20,000×g for 20′. The supernatant is decanted and the pellet is rehomogenized in the same volume of buffer and again centrifuged at 20,000×g. The supernatant is decanted and the pellet is frozen at −20° C. overnight. The pellet is then thawed and rehomogenized in 25 volume (original wt/vol) of buffer and the procedure is carried out twice. The pellet is finally resuspended in 50 volumes (w/vol of 0.05 M Tris HCl buffer (pH 7.4 at […]).
Incubations contain […] of tissue homogenate, […] of radioligand 0.5 nM (^3H-RO15-1788 [^3H-Flumazenil] specific activity 80 Ci/mmol), drug or blocker and buffer to a total volume of […]. Incubations are carried for 30 min at 4° C. then are rapidly filtered through GFB filters to separate free and bound ligand. Filters are washed twice with fresh 0.05 M Tris HCl buffer (pH 7.4 at 4° C.) and counted in a liquid scintillation counter. […] diazepam is added to some tubes to determine nonspecific binding. Data are collected in triplicate determinations, averaged and % inhibition of total specific binding is calculated. Total Specific Binding=Total−Nonspecific. In some cases, the amounts of unlabeled drugs is varied and total displacement curves of binding are carried out.

pKi [1] | melting point | SMILES
7.05 | 130 to 132 °C | CNCc1cccc(NC(=O)c2c[nH]c3c2C(=O)CCC3)c1 [Compound 1, N-[3-(Methylaminomethyl)phenyl]-4-oxo-4,5,6,7-tetrahydro-1H-indole-3-carboxamide]
9.62 | 197 to 200 °C | CNCCc1ccc(NC(=O)c2c[nH]c3c2C(=O)CCC3)cc1 [Compound 4, N-[4-(2-Methylaminoethyl)phenyl]-4-oxo-4,5,6,7-tetrahydro-1H-indole-3-carboxamide]
8.89 | 245 to 247 °C | CC1CC(=O)c2c(C(=O)Nc3ccc(OCCO)cc3)c[nH]c2C1 (centres unmarked) [Compound 9, N-[4-(2-Hydroxyethoxy)phenyl]-4-oxo-6-methyl-4,5,6,7-tetrahydro-1H-indole-3-carboxamide]
7.52 | 173 to 175 °C | CNCc1ccc(NC(=O)c2c[nH]c3c2C(=O)CCCC3)cc1 [Compound 7]
7.62 | 322 to 323 °C | O=C(Nc1ccc2c(c1)NCC2)c1c[nH]c2c1C(=O)CCC2 [Compound 13, N-(2,3-Dihydro-1H-indol-6-yl)-4-oxo-4,5,6,7-tetrahydro-1H-indole-3-carboxamide]
8.52 |  | O=C(Nc1ccc(OCCO)nc1)c1c[nH]c2c1C(=O)CCC2 [Compound 14]
7.43 | 248 to 249 °C | O=C(Nc1ccc2c(c1)OCO2)c1c[nH]c2c1C(=O)CCC2 [Compound 10, N-(1,3-Benzodioxol-5-yl)-4-oxo-4,5,6,7-tetrahydro-1H-indole-3-carboxamide]
7.57 | 233 to 235 °C | CC1(C)CC(=O)c2c(C(=O)Nc3cccc(CO)c3)c[nH]c2C1 [Compound 8, N-[3-(Hydroxymethyl)phenyl]-4-oxo-6,6-dimethyl-4,5,6,7-tetrahydro-1H-indole-3-carboxamide]
8.05 | 171 to 173 °C | O=C(Nc1ccc(CNC2CC2)cc1)c1c[nH]c2c1C(=O)CCC2 [Compound 5, N-[4-(Cyclopropylaminomethyl)phenyl]-4-oxo-4,5,6,7-tetrahydro-1H-indole-3-carboxamide]
7.54 |  | COCCOc1ccc(NC(=O)c2c[nH]c3c2C(=O)CCC3)cc1 [Compound 2, N-[4-(Methoxyethoxy)phenyl]-4-oxo-4,5,6,7-tetrahydro-1H-indole-3-carboxamide]
8.15 | 254 to 256 °C | O=C(Nc1ccc2c(c1)OCCO2)c1c[nH]c2c1C(=O)CCC2 [Compound 11, N-(2,3-Dihydro-1,4-benzodioxin-6-yl)-4-oxo-4,5,6,7-tetrahydro-1H-indole-3-carboxamide]
8.30 | 222 to 223 °C | O=C(Nc1ccc2c(c1)OCCO2)c1c[nH]c2c1C(=O)CCCC2 [Compound 12, N-(2,3-Dihydro-1,4-benzodioxin-6-yl)-4-oxo-1,4,5,6,7,8-hexahydro-cyclohepta[b]pyrrole-3-carboxamide]
 | 148 to 150 °C | O=C(Nc1cnccc1OCCN1CCCC1)c1c[nH]c2c1C(=O)CCC2 [Compound 124, N-[4-(2-Pyrrolidin-1-ylethoxy)pyrid-3-yl]-4-oxo-4,5,6,7-tetrahydro-1H-indole-3-carboxamide]
 | 187 to 190 °C | CCCCNCCOc1ccc(NC(=O)c2c[nH]c3c2C(=O)CCC3)cc1.Cl
7.31 | 186 to 188 °C | CNCc1ccc(NC(=O)c2c[nH]c3c2C(=O)CCC3)c(F)c1 [Compound 3, N-[2-Fluoro-4-(methylaminomethyl)phenyl]-4-oxo-4,5,6,7-tetrahydro-1H-indole-3-carboxamide]
8.05 | > 200 °C (dec.) | NCc1ccc(NC(=O)c2c[nH]c3c2C(=O)CCC3)cc1 [Compound 6, N-[4-(Aminomethyl)phenyl]-4-oxo-4,5,6,7-tetrahydro-1H-indole-3-carboxamide]
 | 247 °C | CN(C)CCCOc1ccncc1NC(=O)c1c[nH]c2c1C(=O)CCC2 [Compound 123, N-[4-(3-Dimethylaminopropoxy)pyrid-3-yl]-4-oxo-4,5,6,7-tetrahydro-1H-indole-3-carboxamide]
